In ChEMBL document CHEMBL3421531, “Synthesis, and structure-activity relationship for C(4) and/or C(5) thienyl substituted pyrimidines, as a new family of antimycobacterial compounds” (Eur J Med Chem, 2015) one finds MIC data, which are given here for 26 molecules.

≈ marks a conversion by molar mass, not a printed value.

The assay concerns Mycobacterium tuberculosis. Kind of assay: Antimycobacterial activity against rifampin,isoniazid-resistant Mycobacterium tuberculosis expressing rpoB/katG mutant after 10 days by microbroth dilution method. Format: functional. Background: In broth dilution the organism is exposed to a series of concentrations in liquid medium.
Regarding `c1ccc(-c2ccc(-c3ncncc3-c3ccsc3)s2)cc1`, the MIC (as a rule, the least concentration at which growth counts as inhibited) turned out to be 19.5 µM (≈ 6.25 µg/mL).
Then `c1ccc(-c2ccc(-c3ncncc3-c3cc4ccccc4s3)s2)cc1`, with 8.37 µM (≈ 3.1 µg/mL); and `c1csc(-c2ccc(-c3ncncc3-c3cccs3)s2)c1`, with 2.14 µM (≈ 0.699 µg/mL).
Then `c1csc(-c2ncncc2-c2csc3ccccc23)c1`, with 42.46 µM (≈ 12.5 µg/mL).
Then `c1ccc(-c2ccc(-c3cncnc3)s2)cc1`, with 26.23 µM (≈ 6.25 µg/mL).
`Brc1cncnc1` displayed an MIC of 78.62 µM (≈ 12.5 µg/mL).
The molecule `c1csc(-c2ccc(-c3cncnc3)s2)c1` had an MIC of 25.58 µM (≈ 6.25 µg/mL).
Then `c1csc(-c2ccc(-c3ncncc3-c3cc4ccccc4s3)s2)c1`, with 33.2 µM (≈ 12.5 µg/mL).
On to `c1ccc(-c2ccc(-c3ncncc3-c3cccs3)s2)cc1`, for which the minimum inhibitory concentration (MIC) was 39.01 µM (≈ 12.5 µg/mL).
Then `c1csc(-c2ncncc2-c2cc3ccccc3s2)c1`, with 21.23 µM (≈ 6.25 µg/mL); and `c1csc(-c2cncnc2)c1`, with 38.53 µM (≈ 6.25 µg/mL).
Then `Brc1ccc(-c2ncncc2-c2csc3ccccc23)s1`, with 8.3 µM (≈ 3.1 µg/mL).
Then `Brc1ccc(-c2ncncc2Br)s1`, with 9.69 µM (≈ 3.1 µg/mL); and `Brc1ccc(-c2ncncc2-c2cccs2)s1`, with 38.67 µM (≈ 12.5 µg/mL); and `c1csc(-c2ncncc2-c2ccsc2)c1`, with 25.58 µM (≈ 6.25 µg/mL).
Take `c1ccc2sc(-c3cncnc3)cc2c1`: the MIC worked out at 58.89 µM (≈ 12.5 µg/mL). Compared with the last molecule, the MIC is about 2.3-fold higher.
Then `c1ncc(-c2ccsc2)cn1`, with 77.06 µM (≈ 12.5 µg/mL); and `Brc1ccc(-c2ncncc2-c2ccsc2)s1`, with 19.34 µM (≈ 6.25 µg/mL); and `c1ccc(-c2ccc(-c3ncncc3-c3csc4ccccc34)s2)cc1`, with 0.4 µM (≈ 0.148 µg/mL).
Then `c1csc(-c2cncnc2-c2cccs2)c1`, with 12.69 µM (≈ 3.1 µg/mL); and `c1ccc2c(-c3cncnc3)csc2c1`, with 7.07 µM (≈ 1.5 µg/mL).
Then `c1csc(-c2ccc(-c3ccncn3)s2)c1`, with 51.16 µM (≈ 12.5 µg/mL); and `c1csc(-c2ccc(-c3ncncc3-c3ccsc3)s2)c1`, with 19.14 µM (≈ 6.25 µg/mL).
Turning to `c1csc(-c2ccc(-c3ncncc3-c3csc4ccccc34)s2)c1`, the MIC stood at 0.98 µM (≈ 0.369 µg/mL).
Then `Brc1ccc(-c2ncncc2-c2cc3ccccc3s2)s1`, with 33.49 µM (≈ 12.5 µg/mL); and `Brc1ccc(-c2cncnc2)s1`, with 51.84 µM (≈ 12.5 µg/mL).
